Source: ChEMBL document CHEMBL1148052, “Cylindrene, a novel sesquiterpenoid from Imperata cylindrica with inhibitory activity on contractions of vascular smooth muscle” (1994)
Active and inactive are the calls of the source. No cut-off for these calls is given here.

Legend:
[1] = test system: Aorta; assay: Inhibition of KCl-induced contraction in rabbit aorta at 100 nM; assay type: functional, tissue-based; conditions: Oryctolagus cuniculus
[2] = test system: Aorta; assay: Inhibition of KCl-induced contraction in rabbit aorta at 300 uM; assay type: functional; conditions: Oryctolagus cuniculus

Row | SMILES | Activity [1] | inhibition at 300 µM [2]
1 | NC[C@H](O)c1ccc(O)c(O)c1 | inactive | 
2 | CC(=O)c1cc(C(C)C)c2c(c1)C(C)(O)CC2 (configuration not stated) [CYLINDRENE] |  | 40%
